The target of data set [1] is human serum albumin (HSA) (Homo sapiens, UniProt P02768). Nature of the data set: Differential scanning fluorimetry. Particulars: for EC50 / ΔTm / Kd / HSA binding (in words): 0.125 mM HSA; for EC50: 4-parameter variable slope model; for EC50 / Kd: mean ± SD; for ΔTm: maximal melting temperature shift; for thermal shift profile at different reaction volumes (volatility check): volumes of 10, 20, 50 and 200 μL per sealed well; for HSA binding (in words): DSF.

For data set [2] the following is noted: DMSO as solvent; cited from earlier work.
[3] abbreviates: PFAS, single-site ligand binding model.

“Also recorded” adds a separate entry of the source.

Sequence of human serum albumin (HSA) (P02768 25-609): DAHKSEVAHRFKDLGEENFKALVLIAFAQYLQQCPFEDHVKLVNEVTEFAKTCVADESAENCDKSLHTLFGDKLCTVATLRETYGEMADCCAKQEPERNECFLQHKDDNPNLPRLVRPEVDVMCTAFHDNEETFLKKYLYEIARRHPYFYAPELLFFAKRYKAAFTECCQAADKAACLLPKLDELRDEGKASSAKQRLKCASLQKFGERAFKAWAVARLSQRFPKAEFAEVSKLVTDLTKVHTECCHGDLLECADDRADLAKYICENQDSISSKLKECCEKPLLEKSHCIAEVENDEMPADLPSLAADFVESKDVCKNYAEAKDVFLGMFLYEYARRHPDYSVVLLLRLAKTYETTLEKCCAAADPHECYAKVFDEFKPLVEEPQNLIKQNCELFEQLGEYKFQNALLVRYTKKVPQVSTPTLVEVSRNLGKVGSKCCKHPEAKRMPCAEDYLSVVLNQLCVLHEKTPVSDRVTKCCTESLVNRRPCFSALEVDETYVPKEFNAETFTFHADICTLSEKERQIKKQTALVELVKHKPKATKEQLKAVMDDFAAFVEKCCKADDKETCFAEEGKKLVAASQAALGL

Turning to `O=S(=O)(O)C(F)(F)C(F)(F)C(F)(F)C(F)(F)F` [PFBS, perfluorobutanesulfonic acid], in data set [1] (PFAS), the EC50 came out at 1.72 ± 0.56 mM and the ΔTm is 11.9 ± 0.11 °C. This compound registered a Kd in data set [1] (setting [3]) of 1.65 ± 0.69 mM.

As for `O=C(O)C(F)(F)C(F)(F)C(F)(F)C(F)(F)C(F)(F)C(F)(F)C(F)(F)C(F)(F)F` [PFNA, perfluorononanoic acid], in data set [1] (PFAS), the midpoint of the response, the EC50, lay at 0.6 ± 0.23 mM and the ΔTm stood at 13.4 ± 0.34 °C. The same compound had a Kd in data set [1] (setting [3]) of 0.58 ± 0.21 mM.

Turning to `O=C(O)CCC(F)(F)C(F)(F)C(F)(F)C(F)(F)C(F)(F)C(F)(F)F` [6:3 FTCA, 2,H,2H,3H,3H-perfluorononanoic acid], in data set [1] (PFAS), it took 0.84 ± 0.21 mM to reach a half-maximal effect (EC50) and the thermal shift (ΔTm) is 9.50 ± 0.20 °C. The compound further displayed a Kd in data set [1] (setting [3]) of 0.81 ± 0.23 mM.

Take `O=S(=O)(O)CCC(F)(F)C(F)(F)C(F)(F)C(F)(F)C(F)(F)C(F)(F)F` [6:2 FTSA, 2H,2H,3H,3H-perfluorooctane-1-sulfonate]: in data set [1] (PFAS), it took 0.47 ± 0.29 mM to reach a half-maximal effect (EC50) and the ΔTm turned out to be 3.60 ± 0.47 °C. In data set [1] (setting [3]), this compound returned a dissociation constant Kd of 0.37 ± 0.34 mM. Moreover, the “thermal shift profile at different reaction volumes (volatility check)” value in data set [1] is “no differences”.

For the compound `OCCC(F)(F)C(F)(F)C(F)(F)C(F)(F)F` [4:2 FTOH, 1H,1H,2H,2H-perfluorohexane-1-ol], in data set [1], the “HSA binding (in words)” value is listed as “not bound by HSA; also recorded: did not bind HSA” and the “thermal shift profile at different reaction volumes (volatility check)” value is “no differences”. In data set [1] (PFAS), the thermal shift (ΔTm) came out at 0 ± 0 °C.

For `O=C(O)CCC(F)(F)C(F)(F)C(F)(F)C(F)(F)C(F)(F)F` [5:3 FTCA, 2H,2H,3H,3H-perfluorooctanoic acid], in data set [1] (PFAS), the EC50 amounted to 1.48 ± 0.24 mM and the ΔTm was determined as 3.62 ± 0.14 °C. Further, the Kd in data set [1] (setting [3]) turned out to be 0.62 ± 0.1 mM.

Turning to `O=C(O)C(F)(F)C(F)(F)C(F)(F)C(F)(F)C(F)(F)C(F)(F)C(F)(F)F` [PFOA, perfluorooctanoic acid], the concentration giving a half-maximal response (EC50) in data set [1] (EC50, PFAS) amounted to 0.84 ± 0.15 mM. In addition, the Kd is 0.83 ± 0.27 mM in data set [1] (Kd, PFOA stock in HEPES-buffered saline (HBS)) and 0.83 ± 0.15 mM in data set [1] (Kd, PFOA stock in methanol (30% in HBS)).

For `O=C(O)C(F)(F)C(F)(F)C(F)(F)C(F)(F)F` [PFPeA, perfluoropentanoic acid], in data set [1] (PFAS), a half-maximal response (EC50) required 2.14 ± 0.42 mM and the ΔTm was found to be 13.1 ± 0.066 °C. Further, the affinity in data set [1] (setting [3]), expressed as Kd, was 2.1 ± 0.56 mM.

As for `O=S(=O)(O)C(F)(F)C(F)(F)OC(F)(C(F)(F)F)C(F)(F)OC(F)C(F)(F)F` (stereo not shown) [Nafion bp2], in data set [1] (PFAS), the response was half-maximal at 1.9 ± 0.59 mM (EC50) and the ΔTm was determined as 12.4 ± 0.17 °C. In data set [1] (setting [3]), this compound showed a Kd of 1.51 ± 0.37 mM.

Consider `O=S(=O)(O)C(F)(F)C(F)(F)C(F)(F)C(F)(F)C(F)(F)C(F)(F)F` [PFHxS, perfluorohexanesulfonic acid], for which, in data set [1], the “thermal shift profile at different reaction volumes (volatility check)” value was “no differences”.

With `O=C(O)C(F)(F)C(F)(F)C(F)(F)F` [PFBA, perfluorobutanoic acid], in data set [1] (PFAS), the EC50 is 2.61 ± 0.47 mM and the ΔTm was determined as 6.48 ± 0.18 °C. The compound also returned a Kd in data set [1] (setting [3]) of 2.57 ± 0.78 mM.

`FC(OC(F)(F)C(F)(F)C(F)(F)F)C(F)(F)F` (stereo not shown) [E1, 1,1,1,2,2,3,3-heptafluoro-3-(1,2,2,2-tetrafluoroethoxy)propane]: the “HSA binding (in words)” value in data set [1] is “bound by albumin”. It took 2.34 ± 0.56 mM to reach a half-maximal effect in data set [1] (EC50, PFAS) (EC50).

Turning to `O=C(O)CCC(F)(F)C(F)(F)C(F)(F)C(F)(F)C(F)(F)C(F)(F)C(F)(F)C(F)(F)F` [8:3 FTCA, 2,H,2H,3H,3H-perfluoroundecanoate], in data set [1] (PFAS), the concentration giving a half-maximal response (EC50) worked out at 1.16 ± 0.42 mM and the ΔTm was determined as 10.01 ± 0.17 °C. Also, in data set [1] (setting [3]), binding was put at a Kd of 0.97 ± 0.17 mM.

`O=S(=O)(O)C(F)(F)C(F)(F)C(F)(F)C(F)(F)C(F)(F)C(F)(F)C(F)(F)C(F)(F)F` [PFOS, perfluorooctanesulfonic acid]: in data set [1] (PFAS), the EC50 was 1.13 ± 0.32 mM and the shift in melting temperature (ΔTm) stood at 16.2 ± 0.90 °C.

With `OCCC(F)(F)C(F)(F)C(F)(F)C(F)(F)C(F)(F)C(F)(F)F` [6:2 FTOH, 1H,1H,2H,2H-perfluorooctanol], in data set [1], the “HSA binding (in words)” value is “not bound by HSA; also recorded: did not bind HSA” and the “thermal shift profile at different reaction volumes (volatility check)” value was “no differences”. In addition, the thermal shift (ΔTm) in data set [1] (PFAS) came out at 0 ± 0 °C.

Take `O=C(O)C(F)(OC(F)(F)C(F)(F)C(F)(F)F)C(F)(F)F` (stereo not shown) [HFPO-DA, hexafluoropropylene oxide dimer acid]: in data set [1] (PFAS), a half-maximal response (EC50) required 1.83 ± 0.87 mM and the shift in melting temperature (ΔTm) was 13.7 ± 0.17 °C. Moreover, the affinity in data set [1] (setting [3]), expressed as Kd, was 1.6 ± 0.55 mM. For the same compound, the “time to rapid and complete conversion of HFPO-DA to E1” value in data set [2] is listed as “under 4 h”.

As to `O=C(O)CCC(F)(F)C(F)(F)C(F)(F)F` [3:3 FTCA, 2H,2H,3H,3H-perfluorohexanoic acid], in data set [1] (PFAS), the midpoint of the response, the EC50, lay at 2.06 ± 0.51 mM and the ΔTm was found to be 2.24 ± 0.062 °C. This compound also registered a Kd in data set [1] (setting [3]) of 1.71 ± 0.47 mM.

For `O=C(O)C(F)(F)C(F)(F)C(F)(F)C(F)(F)C(F)(F)F` [PFHxA, Perfluorohexanoic acid], in data set [1] (PFAS), a half-maximal effect (EC50) was put at 1.4 ± 0.27 mM and the shift in melting temperature (ΔTm) was 10.6 ± 0.24 °C. The same compound came in with a Kd in data set [1] (setting [3]) of 1.64 ± 0.47 mM.

For the compound `O=C(O)C(F)(F)C(F)(F)C(F)(F)C(F)(F)C(F)(F)C(F)(F)C(F)(F)C(F)(F)C(F)(F)F` [PFDA, perfluorodecanoic acid], in data set [1] (PFAS), the EC50 turned out to be 1.11 ± 0.17 mM and the shift in melting temperature (ΔTm) amounted to 17.2 ± 0.13 °C. In data set [1] (setting [3]), this compound showed a dissociation constant Kd of 1.19 ± 0.59 mM.

Consider `O=S(=O)(O)CCC(F)(F)C(F)(F)C(F)(F)C(F)(F)F` [4:2 FTSA, 2H,2H,3H,3H-perfluorohexanesulfonic acid], for which, in data set [1] (PFAS), the EC50 amounted to 1.45 ± 0.34 mM and the ΔTm is 3.49 ± 0.12 °C. Besides, binding in data set [1] (setting [3]) was characterised by a dissociation constant (Kd) of 1.07 ± 0.47 mM.

With `O=C(O)C(F)(F)C(F)(F)C(F)(F)C(F)(F)C(F)(F)C(F)(F)C(F)(F)C(F)(F)C(F)(F)C(F)(F)F` [PFunDA, Perfluoroundecanoic acid], in data set [1] (PFAS), the 50% effective concentration (EC50) was found to be 1.49 ± 0.048 mM and the ΔTm turned out to be 9.02 ± 0.47 °C. The compound also registered a dissociation constant Kd in data set [1] (setting [3]) of 1.36 ± 1.06 mM.
